Source: patent publication US7507407B2, “Immunoliposomes that optimize internationalization into target cells” (The Regents of the University of California, priority 1994, dated 2009)

What was measured:
[1] = tested on: WI-38 cells; test: cytotoxicity of doxorubicin-loaded immunoliposomes, WI-38 cells; type: cell-based; settings: minimal p185^HER2
[2] = tested on: SK-BR-3 cells; settings: treated 1 hour, counted after 3 days, doxorubicin concentration
Procedure: (A) SK-BR-3 cells. […] Cells in culture were treated for 1 hour with: conventional immunoliposomes (triangles); sterically stabilized (2 mole % PEG-PE) immunoliposomes (closed circles); control (irrelevant antibody) sterically stabilized (2 mole % PEG-PE) immunoliposomes (open circles); or free doxorubicin alone (closed squares). Immunoliposomes contained 60-70 μg antibody/μmol phospholipid and 55-80 μg doxorubicin/μmol phospholipid; antibody/doxorubicin ratio was 0.8-1.2. Cells were counted 3 days after treatment as described in Methods.
To test the cytotoxicity of doxorubicin-loaded immunoliposomes, SK-BR-3 or WI-38 cells in monolayer culture were incubated with free doxorubicin or doxorubicin-loaded immunoliposomes for 1 hour, and then washed extensively with media. The cells were then further incubated at 37° C. for 3 days, after which cell number was estimated by crystal violet staining as described above.

Structure (SMILES): COc1cccc2c1C(=O)c1c(O)c3c(c(O)c1C2=O)C[C@@](O)(C(=O)CO)C[C@@H]3O[C@H]1C[C@H](N)[C@H](O)[C@H](C)O1 [doxorubicin]
- cytotoxicity against WI-38 cells [1]: significant dose-dependent cytotoxicity
- IC50 cytotoxicity [2]: approximately 0.3 μg/ml
